Like-named read-outs stand apart in the source and are kept apart here.

In one data set the test system is NC/Nga mice. Conditions: cited from earlier work.
The conditions of data set [1]: in vivo.
Protocol: In order to clarify the relationship between the amount of DGLA orally ingested in humans and the internal DGLA level, the amount of DGLA orally ingested was investigated by examination of the diet, and after drawing blood, the amount of DGLA in the serum phospholipids was determined. The subjects were eleven healthy males aged 60-70, and were asked to keep a diary of the content of their diets. From the diary, the amount ingested by each food material was determined for meat, eggs, and seafood known to contain DGLA, and using the DGLA content of each food material calculated from “Fourth revised [sequence] […] From the amount of DGLA ingested per week, the mean amount of DGLA ingested per day was calculated for each person.
On the other hand, blood was drawn the day after the last entry of the diary, and for the serum phospholipid fractions obtained, the fatty acid composition was analyzed according to a standard method. Thus, from the serum the lipid component extracted by the Folch method, a standard method, and the lipid was fractionated on a thin layer chromatography (the developing solution is hexane/diethyl ether=7/3) to obtain the phospholipid fraction. […] The fatty acid methyl ester mixture was analyzed by a capillary gas chromatography to obtain DGLA (% by weight) in the total fatty acids in the serum phospholipid.
Another data set has as its system eosinophil migration. As to conditions: guinea pigs, cited from earlier work.

As for `CC/C=C\C/C=C\C/C=C\CCCCCCCC(=O)O` [ALA, α-linolenic acid], the “prevention of atopic dermatitis (correction of dermatitis symptoms and blood IgE)” value in the data set on NC/Nga mice (same mouse model, diet containing a large amount of ALA, exact dose not known) is reported as “no effect of preventing atopic dermatitis”.
In the case of `CCCCC/C=C\C/C=C\C/C=C\CCCCCCC(=O)O` [DGLA, dihomo-γ-linolenic acid], in data set [1], the “amount of DGLA required to increase DGLA in serum phospholipid about 3% by weight” value is “about 100 mg per day” and the “increase of DGLA in the serum phospholipid with each increase of about 32 mg in the amount of DGLA ingested” value came to 1 % by weight.
Take `CC/C=C\C/C=C\C/C=C\C/C=C\C/C=C\C/C=C\CCC(=O)OCC` [DHA ethylester]: the “eosinophil migration in the delayed type allergy” value with eosinophil migration (intraperitoneal administration of 50 mg) is “can inhibit eosinophil migration”.
Consider `CC/C=C\C/C=C\C/C=C\C/C=C\C/C=C\CCCC(=O)OCC` [EPA ethylester], for which the “eosinophil migration in the delayed type allergy” value in the data set on eosinophil migration (intraperitoneal administration of 100 mg) is recorded as “can inhibit eosinophil migration”.
In the case of `CCCCC/C=C\C/C=C\C/C=C\CCCCC(=O)O` [GLA, γ-linolenic acid], the “formation of atopic dermatitis and IgE production” value in the data set with NC/Nga mice (NC/Nga mice, oral ingestion about 1250 mg/kg/day) is “effects of inhibiting the formation of atopic dermatitis and IgE production”.

Values taken from patent publication US10342773B2, “Composition containing dihomo-γ-linolenic acid (DGLA) as the active ingredient” (SUNTORY HOLDINGS LIMITED, priority 2005, dated 2019).
